{
  "source": "ChEMBL document CHEMBL4699480",
  "about": "(J Med Chem, 2020)",
  "key": {"[1]": {"biological_target": "T1, UDP-N-acetylglucosamine--dolichyl-phosphate N-acetylglucosaminephosphotransferase (Homo sapiens) (UniProt Q9H3H5)", "T1 sequence (whole entry)": "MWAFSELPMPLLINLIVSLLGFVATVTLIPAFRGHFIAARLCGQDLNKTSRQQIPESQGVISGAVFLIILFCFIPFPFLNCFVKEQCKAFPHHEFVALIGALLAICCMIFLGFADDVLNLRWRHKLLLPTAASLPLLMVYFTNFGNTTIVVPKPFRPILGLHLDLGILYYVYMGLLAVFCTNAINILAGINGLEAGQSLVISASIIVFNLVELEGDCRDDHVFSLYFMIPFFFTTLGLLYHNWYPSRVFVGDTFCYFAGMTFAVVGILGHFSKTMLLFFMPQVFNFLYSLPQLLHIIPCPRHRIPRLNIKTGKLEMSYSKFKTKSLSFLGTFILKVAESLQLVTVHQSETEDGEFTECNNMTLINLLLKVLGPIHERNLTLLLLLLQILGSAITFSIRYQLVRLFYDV", "assay": "Inhibition of DPAGT1 in human PD002 cells assessed as reduction in snail protein expression incubated for 24 hrs by immunofluorescence staining assay", "type": "cell-based"}, "[2]": {"assay": "Synergistic cytotoxicity in human PD002 cells assessed as FIC at 0.1 uM incubated for 72 hrs in presence of […] paclitaxel by IncuCyte live cell analysis imaging system based assay", "type": "functional"}, "[3]": {"assay": "Synergistic cytotoxicity in human PD002 cells assessed as FIC at 2 uM incubated for 72 hrs in presence of 0.039 uM paclitaxel by IncuCyte live cell analysis imaging system based assay", "type": "functional"}, "SiHa": {"tested_on": "SiHa", "assay": "Cytotoxicity in human SiHa cells assessed as reduction in cell viability incubated for 72 hrs by MTT assay", "type": "functional, cell-based"}, "[4]": {"assay": "Inhibition of cell migration in human PD002 cells assessed as wound healing rate at 0.2 uM incubated for 24 hrs by wound healing assay (reference value: 63%)", "type": "functional", "set-up": "scale not given: the % may be the effect or the level left"}, "PANC-1 [5]": {"tested_on": "PANC-1", "assay": "Inhibition of E-cadherin protein expression in human PANC-1 cells at 0 to 2 uM incubated for 24 hrs by Western blot analysis", "type": "functional, cell-based", "details": "dose microM 0-2, time […]"}, "DLD-1": {"tested_on": "DLD-1", "assay": "Cytotoxicity in human DLD-1 cells assessed as reduction in cell viability incubated for 72 hrs by MTT assay", "type": "functional, cell-based", "details": "DLD-1, 72 h"}, "Vero": {"tested_on": "Vero", "assay": "Cytotoxicity in African green monkey Vero cells assessed as reduction in cell viability incubated for 72 hrs by MTT assay", "type": "cell-based", "details": "Chlorocebus sabaeus"}, "PANC-1 [6]": {"tested_on": "PANC-1", "assay": "Cytotoxicity in human PANC-1 cells assessed as reduction in cell viability incubated for 72 hrs by MTT assay", "type": "functional, cell-based", "details": "PANC-1, 72 h"}, "[7]": {"assay": "Synergistic cytotoxicity in human PD002 cells assessed as FIC at 2 uM incubated for 72 hrs in presence of 0.020 uM paclitaxel by IncuCyte live cell analysis imaging system based assay", "type": "functional"}, "[8]": {"biological_target": "T2, UDP-N-acetylglucosamine--dolichyl-phosphate N-acetylglucosaminephosphotransferase (Homo sapiens, UniProt Q9H3H5)", "T2 sequence (Q9H3H5 whole entry)": "T1 sequence (whole entry)", "assay": "Inhibition of human DPAGT1 expressed in HEK293 (Expi293) cells incubated for 2 hrs using UDP-GlcN-Cg-FITC and alpha-dihydroundecap-renyl phosphate by reversed-phase HPLC analysis", "type": "cell-based"}, "PANC-1 [9]": {"tested_on": "PANC-1", "assay": "Inhibition of DPAGT1 protein expression in human PANC-1 cells at 0.2 uM incubated for 24 hrs by Western blot analysis", "type": "functional, cell-based"}, "HCT-116 [10]": {"tested_on": "HCT-116", "assay": "Inhibition of DPAGT1 protein expression in human HCT-116 cells at 0.1 to 20 uM incubated for 72 hrs by immunofluorescence assay", "details": "dose microM 0.1-20, time 72.0 hrs"}, "CAPAN-1 [11]": {"tested_on": "CAPAN-1", "assay": "Inhibition of DPAGT1 protein expression in human CAPAN-1 cells at 0.2 uM incubated for 24 hrs by Western blot analysis", "type": "functional, cell-based"}, "[12]": {"biological_target": "T1, UDP-N-acetylglucosamine--dolichyl-phosphate N-acetylglucosaminephosphotransferase (Homo sapiens)", "assay": "Inhibition of DPAGT1 in human PD002 cells assessed as reduction in snail protein expression incubated for 24 hrs by Western blot analysis", "type": "cell-based"}, "[13]": {"biological_target": "T1, UDP-N-acetylglucosamine--dolichyl-phosphate N-acetylglucosaminephosphotransferase (Homo sapiens)", "assay": "Inhibition of DPAGT1 in human PANC-1 cells assessed as reduction in snail protein expression incubated for 24 hrs by immunofluorescence staining assay", "type": "cell-based"}, "PD002 [14]": {"tested_on": "PD002", "assay": "Inhibition of E-cadherin protein expression in human PD002 cells at 0 to 2 uM incubated for 24 hrs by Western blot analysis", "type": "functional, cell-based", "details": "dose microM 0-2, time […]"}, "[15]": {"assay": "Synergistic cytotoxicity in human PD002 cells assessed as FIC at 0.1 uM incubated for 72 hrs in presence of 0.63 uM paclitaxel by IncuCyte live cell analysis imaging system based assay", "type": "functional"}, "PD002 [16]": {"tested_on": "PD002", "assay": "Inhibition of DPAGT1 mRNA expression in human PD002 cells at 0 to 10 uM incubated for 24 hrs by RT-qPCR analysis", "type": "functional, cell-based", "details": "dose microM 0-10, time […]"}, "HCT-116 [17]": {"tested_on": "HCT-116", "assay": "Inhibition of DPAGT1 protein expression in human HCT-116 cells at 0.2 uM incubated for 24 hrs by Western blot analysis", "type": "functional, cell-based"}, "[18]": {"assay": "Cytotoxicity in human hTERT-HPNE cells assessed as reduction in cell viability incubated for 72 hrs by MTT assay", "type": "cell-based"}, "[19]": {"assay": "Cytotoxicity in human PD002 cells assessed as reduction in cell viability incubated for 72 hrs by MTT assay", "type": "functional, cell-based", "details": "PD002, 72 h"}, "CAPAN-1 [20]": {"tested_on": "CAPAN-1", "assay": "Cytotoxicity in human CAPAN-1 cells assessed as reduction in cell viability incubated for 72 hrs by MTT assay", "type": "functional, cell-based", "details": "CAPAN-1, 72 h"}, "[21]": {"assay": "Cytotoxicity in human PD002 cells assessed as phase area confluence level at 50 uM incubated for 72 hrs by IncuCyte live cell analysis imaging system based assay (reference value: 70%)"}, "[22]": {"assay": "Synergistic cytotoxicity in human PD002 cells assessed as FIC at 0.2 uM incubated for 72 hrs in presence of 0.0049 uM paclitaxel by IncuCyte live cell analysis imaging system based assay", "type": "functional"}, "[23]": {"assay": "Inhibition of N-terminal His9-tagged Methanocaldococcus jannaschii DSM 2661 AglH incubated for 2 hrs using UDP-GlcN-Cg-FITC and alpha-dihydroundecap-renyl phosphate by reversed-phase HPLC analysis"}, "[24]": {"assay": "Synergistic cytotoxicity in human PD002 cells assessed as FIC at 2 uM incubated for 72 hrs in presence of 0.31 uM paclitaxel by IncuCyte live cell analysis imaging system based assay", "type": "functional"}, "PD002 [25]": {"tested_on": "PD002", "assay": "Inhibition of cell migration in human PD002 cells at 0.1 uM incubated for 0.5 hrs by crystal violet staining based Boyden chamber assay", "type": "functional"}, "[26]": {"assay": "Synergistic cytotoxicity in human PD002 cells assessed as FIC at 0.2 uM incubated for 72 hrs in presence of 0.031 uM paclitaxel by IncuCyte live cell analysis imaging system based assay", "type": "functional"}, "[27]": {"assay": "Inhibition of Escherichia coli WecA incubated for 2 hrs using UDP-Glucosamine-C6-FITC substrate by reversed-phase HPLC analysis", "set-up": "species or system Escherichia coli BL21"}, "[28]": {"biological_target": "T1, UDP-N-acetylglucosamine--dolichyl-phosphate N-acetylglucosaminephosphotransferase (Homo sapiens)", "assay": "Inhibition of DPAGT1 in human PANC-1 cells assessed as reduction in snail protein expression incubated for 24 hrs by Western blot analysis", "type": "cell-based"}, "ASPC1": {"tested_on": "ASPC1", "assay": "Inhibition of DPAGT1 protein expression in human ASPC1 cells at 0.2 uM incubated for 24 hrs by Western blot analysis", "type": "functional, cell-based"}},
  "note": "pIC50: −log10 of the molar value. Activity calls are given as the source filed them. The rule behind the calls is not given here.",
  "data": [
    {"molecule": "CO[C@H]1[C@@H](O)[C@H](n2ccc(=O)[nH]c2=O)O[C@@H]1[C@@H](O[C@H]1OC(C(=O)NCc2ccc(N3CCC(Oc4ccc(OC(F)(F)F)cc4)CC3)cc2)=C[C@H](O)[C@@H]1O)C(N)=O", "values": [
      {"measurement": "inhibition", "setting": "[1]", "result": "Active"},
      {"measurement": "FIC", "setting": "[2]", "result": 0.13},
      {"measurement": "FIC", "setting": "[3]", "result": 0.037},
      {"measurement": "pIC50", "setting": "SiHa", "result": 4.82},
      {"measurement": "Activity", "setting": "[4]", "result": 20, "unit": "%"},
      {"measurement": "inhibition", "setting": "PANC-1 [5]", "result": "inactive"},
      {"measurement": "pIC50", "setting": "DLD-1", "result": 4.60},
      {"measurement": "pIC50", "setting": "Vero", "result": "< 4.30"},
      {"measurement": "pIC50", "setting": "PANC-1 [6]", "result": 4.46},
      {"measurement": "FIC", "setting": "[7]", "result": 0.021},
      {"measurement": "pIC50", "setting": "[8]", "result": 6.70},
      {"measurement": "inhibition", "setting": "PANC-1 [9]", "result": "Active"},
      {"measurement": "inhibition", "setting": "HCT-116 [10]", "result": "inactive"},
      {"measurement": "inhibition", "setting": "CAPAN-1 [11]", "result": "Active"},
      {"measurement": "inhibition", "setting": "[12]", "result": "Active"},
      {"measurement": "inhibition", "setting": "[13]", "result": "Active"},
      {"measurement": "inhibition", "setting": "PD002 [14]", "result": "inactive"},
      {"measurement": "FIC", "setting": "[15]", "result": 0.5},
      {"measurement": "inhibition", "setting": "PD002 [16]", "result": "inactive"},
      {"measurement": "inhibition", "setting": "HCT-116 [17]", "result": "Active"},
      {"measurement": "pIC50", "setting": "[18]", "result": "< 4.30"},
      {"measurement": "pIC50", "setting": "[19]", "result": 4.46},
      {"measurement": "pIC50", "setting": "CAPAN-1 [20]", "result": 4.52},
      {"measurement": "Activity", "setting": "[21]", "result": 10, "unit": "%"},
      {"measurement": "FIC", "setting": "[22]", "result": 0.0096},
      {"measurement": "pIC50", "setting": "[23]", "result": 6.82},
      {"measurement": "FIC", "setting": "[24]", "result": 0.26},
      {"measurement": "inhibition", "setting": "PD002 [25]", "result": "Active"},
      {"measurement": "FIC", "setting": "[26]", "result": 0.26},
      {"measurement": "pIC50", "setting": "[27]", "result": 7.00},
      {"measurement": "inhibition", "setting": "[28]", "result": "Active"},
      {"measurement": "inhibition", "setting": "ASPC1", "result": "Active"}
    ]}
  ]
}
